According to patent US20110152176A1, “AGR-MEDIATED INHIBITION AND DISPERSAL OF BIOFILMS” (priority 2008, published 2011):
Ends that are not written are not given here.

How the values were obtained:
extracellular proteases [1] = assay: Protease activity of AIP-I detached biofilm effluent with inhibitors or activators (Azocoll); format: biochemical, Staphylococcus aureus; settings: EGTA 1 mM, PMSF 10 mM (method: 200 mM), DTT 1 mM
Description: (§1) Monitoring protease activity. Milk agar plates for detection of protease activity consisted of 3 g/L Tryptic Soy broth, 20 g/L non-fat dry milk, and 15 g/L agar. To determine relative protease activities of strains, assays were performed as described previously using the Azocoll (Calbiochem) reagent (Fournier et al., 2001). For measuring protease levels in biofilm effluents, 100 mL of effluent was collected on ice (about 12 hours) after AIP addition to the biofilm medium. Cells were removed from the effluents through centrifugation and filtering, and ammonium sulfate was added to 60% over one hour at 4° C. to concentrate proteins. The precipitated proteins were pelleted by centrifugation at 19,000 rpm for 30 min, and the pellet was washed and resuspended in 1 ml with 10 mM Tris pH 7.5. For the protease assay, the reaction mixture was supplemented with either 1 mM EGTA, 200 mM PMSF, or 1 mM DTT to gauge relative levels of protease classes.
There are 10 known extracellular proteases produced by most S. aureus strains and expression of all these enzymes is controlled by the agr system (Novick, 2003; Dunman et al., 2001; Ziebandt et al., 2004). These 10 proteases include the metalloprotease aureolysin (aur), two cysteine proteases (scpA and sspB), and seven serine proteases (sspA (V8) and sp1ABCDEF) (Dubin, 2002). To elucidate what class(es) of proteases are prevalent in AIP-treated biofilms, the effluent from a detaching biofilm was assayed for protease activity in the presence of protease inhibitors or activating agents.

S. aureus SH1000 biofilm = assay: Flow cell biofilm detachment (CLSM, COMSTAT biomass, effluent CFU); format: cell-based, Staphylococcus aureus; settings: for biomass detached: day 2 vs day 4
Description: (§2) Biofilm experiments. Microtiter plate biofilms were performed as described (Shanks et al., 2005) except that the plates were incubated at 37° C. with shaking at 200 rpm for 12 hours. For flow cell experiments, AIPs were generated using the DnaB intein method, and the AIP concentrations were determined as previously described (Malone et al., 2007). AIPs stocks (20 mM) were stored in 100 mM phosphate (pH 7), 50 mM NaC1, 1 mM tris(2-carboxyethyl) phosphine (TCEP) and were diluted into the biofilm flow medium to a final concentration of 50 nM. When required, […] of erythromycin and/or chloramphenicol were added to the flow cell media to maintain plasmids. The growth medium for flow cell biofilms consisted of 2% TSB plus 0.2% glucose unless otherwise indicated. Flow cell biofilm experiments and confocal microscopy were performed as previously described (Yarwood et al., 2004). Flow cells were inoculated with overnight cultures diluted 1:100 in sterile water and laminar flow ([…]) was initiated after one hour incubation. Confocal microscopy was performed using a Radiance 2100 system (Biorad) with a Nikon Eclipse E600 microscope. Confocal images were processed using Velocity software (Improvision, Lexington, Mass.). Biofilm biomass was quantified with the COMSTAT program (Heydorn et al., 2000) and percent biomass detached was calculated by subtracting biomass present at day 4 from day 2. To quantitate the number of bacteria detaching from a biofilm, 1 ml of flow cell effluent was collected on ice at indicated time points. The collected effluent was vortexed and sonicated in a water bath for 10 minutes to break up clumps, and serial dilutions were plated on TSA plates to determine colony forming units (CFUs). For the Proteinase K detachment experiments, the enzyme (Sigma-Aldrich) was suspended in water and added to the media reservoir at a final concentration of 2 mg/ml.
AIP detaches S. aureus biofilms. To investigate the role of the agr system in established biofilms, the inventors developed strategies to modulate level of agr activity within a biofilm. Initially, media supplementation experiments were performed using purified AIP signal in order to place the agr system under external control. The inventors recently developed a new method for AIP biosynthesis (Malone et al., 2007), enabling the production of sufficient signal levels for flow cell experiments. Through exogenous AIP addition, they could test wild-type strains and avoid any potential complications of constructed agr deletion mutants. For this approach, established flow cell biofilms were prepared using S. aureus SH1000 constitutively expressing RFP with plasmid pAH9. The flow cell media was supplemented with glucose to attenuate agr expression (Regassa et al., 1992), allowing cell attachment and biofilmdevelopment. After two days, either 1 mL of buffer (100 mM phosphate [pH 7], 50 mMNaCl, 1 mMTCEP; FIG. 2A) or 1 mL of […] in buffer (FIG. 2B and Video S1) was diluted 1000-fold (50 nM final concentration) into the growth media. Using the inventors' synthesized AIP-I in dose-response curves (Malone et al., 2007), the inventors estimate the amount of AIP-I in supernatants of TSB broth cultures (OD600 1.0-1.3) reaches approximately 400 nM (data not shown), indicating the 50 nM level used for the biofilm experiments is within a relevant concentration range. […] To confirm that AIP-I caused detachment, the inventors counted viable S. aureus cells in the effluent media (FIG. 2C). […] In contrast, the number of bacteria in the biofilm effluent without AIP-I addition remained relatively constant.

[2] = tested on: S. aureus SH1000 biofilm and detached bacteria; assay: Susceptibility of biofilm and detached bacteria to rifampicin killing; format: cell-based, Staphylococcus aureus; settings: six hours
Description: Antibiotic sensitivity. S. aureus biofilms were grown for two days in a flow chamber lined with removable polycarbonate coupons (Flow Cell FC271, Biosurface Technologies, Bozeman Mont.). Biofilm effluents were collected on ice about 24 hours after AIP-I addition. In parallel, coupons with biofilm growth were removed from flow cells not exposed to AIP-I. Both detached bacteria and the biofilms were exposed to the indicated levels of rifampicin for six hours. Subsequently, cells were vortexed, and the coupons were sonicated in a water bath to break up the biofilm or cell clumps. Serial dilutions were plated on TSA to determine surviving CFU's.
Detached S. aureus cells regain antibiotic sensitivity. Biofilm growth of S. aureus increases resistance to antimicrobials when compared to the planktonic growth mode (Fux et al., 2004; Yarwood et al., 2004). This Biofilm-mediated resistance hinders treatment of many chronic S. aureus biofilm related infections, including endocarditis, osteomyelitis, and indwelling medical device infections (Parsek and Singh, 2003; Costerton et al., 2003). Therefore, the inventors asked whether AIP-dispersed bacteria regained sensitivity to a clinically relevant antibiotic, rifampicin. To test this, the inventors collected detached cells from an AIP-treated biofilm effluent and compared resistance to intact biofilms exposed to different levels of rifampicin. […]

[3] = tested on: FRI1169 (agr Type I) biofilm; assay: Flow cell biofilm detachment, agr-I strain; format: cell-based, Staphylococcus aureus; settings: 2-day old biofilm, 50 nM cognate AIP, over 48 hours
Description: as §2, with “Confocal microscopy was performed using a Radiance 2100 system (Biorad) with a Nikon Eclipse E600 microscope. Confocal images were processed using Velocity software (Improvision, Lexington, Mass.).” left out, “The collected effluent was vortexed and sonicated in a water bath for 10 minutes to break up clumps, and serial dilutions were plated on TSA plates to determine colony forming units (CFUs). For the Proteinase K detachment experiments, the enzyme (Sigma-Aldrich) was suspended in water and added to the media reservoir at a final concentration of 2 mg/ml.” left out

agr P3 promoter = assay: agr P3-GFP reporter (pDB59) expression in flow cell biofilms; format: cell-based, Staphylococcus aureus
Description: Strains and growth conditions. The bacterial strains and plasmids used in this study are described in Table 1. S. aureus or Escherichia coli were grown in tryptic soy broth (TSB) or on tryptic soy agar (TSA) with the appropriate antibiotics for plasmid selection or maintenance (erythromycin […]; chloramphenicol 10 μg/ml; tetracycline 5 μg/ml) and incubated at 37° C. Plasmid DNA was prepared from E. coli and transformed by electroporation into S. aureus RN4220 as described (Schenk and Laddaga, 1992). Plasmids were moved from RN4220 into other S. aureus strains by transduction with bacteriophage a80 (Novick, 1991) or by purifying the plasmid DNA and transformed by electroporation into appropriate strains. To move sspA and sp1ABCDEF mutations into appropriate genetic backgrounds, phage transduction with a80 was used as described (Novick, 1991). To construct the Daur mutation, the pKOR1-aur plasmid was used as described (Kavanaugh et al., 2007). Fluorescence measurements with S. aureus strains containing pDB59 were performed as previously described (Malone et al., 2007).
(§3) Biofilm experiments. Microtiter plate biofilms were performed as described (Shanks et al., 2005) except that the plates were incubated at 37° C. with shaking at 200 rpm for 12 hours. For flow cell experiments, AIPs were generated using the DnaB intein method, and the AIP concentrations were determined as previously described (Malone et al., 2007). AIPs stocks (20 mM) were stored in 100 mM phosphate (pH 7), 50 mM NaC1, 1 mM tris(2-carboxyethyl) phosphine (TCEP) and were diluted into the biofilm flow medium to a final concentration of 50 nM. When required, […] of erythromycin and/or chloramphenicol were added to the flow cell media to maintain plasmids. […] Biofilm biomass was quantified with the COMSTAT program (Heydorn et al., 2000) and percent biomass detached was calculated by subtracting biomass present at day 4 from day 2. To quantitate the number of bacteria detaching from a biofilm, 1 ml of flow cell effluent was collected on ice at indicated time points. […]

extracellular proteases [4] = assay: Protease activity in biofilm effluents after AIP addition (Azocoll); format: cell-based, Staphylococcus aureus; settings: for protease activity in biofilm effluent relative to biofilm without AIP: wild-type SH1000 biofilm supplemented with AIP
Description: as §1
If S. aureus proteases have a role in detachment, proteinase K should be able to disperse an established biofilm. […] With this preliminary observation, the inventors measured the levels of protease activity in effluents from biofilms with and without AIP-I addition using Azocoll (azo dye-impregnated collagen) reagent. […] With the addition of activating AIP-I, the protease activity increased approximately five-fold compared to a biofilm with no AIP-I treatment.

[5] = tested on: SA502a (agr Type II) biofilm; assay: Flow cell biofilm detachment, agr-II strain; format: cell-based, Staphylococcus aureus; settings: 2-day old biofilm, 50 nM cognate AIP, over 48 hours
Description: as §3, with “plasmids. The growth medium for flow cell biofilms consisted of 2% TSB plus 0.2% glucose unless otherwise indicated. Flow cell biofilm experiments and confocal microscopy were performed as previously described (Yarwood et al., 2004). Flow cells were inoculated with overnight cultures diluted 1:100 in sterile water and laminar flow ([…]) was initiated after one hour incubation.” for “plasmids.”

[6] = wild-type SH1000 2-day flow cell biofilm, 50 nM AIP in growth media
[7] = dual-labeled SH1000 (agr type I) biofilm, 50 nM AIP after two days of growth

With O[C@@H](CS)[C@@H](O)CS [DTT] the “effect on overall protease activity of effluent” value (shortened to “effect … of effluent”) (extracellular proteases [1]) was “did not significantly change protease activity”.

For O=C(O)CN(CCOCCOCCN(CC(=O)O)CC(=O)O)CC(=O)O [EGTA], the “effect … of effluent” value (extracellular proteases [1]) was “negligible effect”.

In the case of O=S(=O)(F)Cc1ccccc1 [PMSF, reference compound], the “effect on AIP-I mediated biofilm detachment” value (S. aureus SH1000 biofilm; 10 mM PMSF in combination with AIP-I versus AIP-I alone) is reported as “significantly reduced the level of detachment”, the biomass detached (S. aureus SH1000 biofilm; wild-type biofilm, 10 mM PMSF in combination with 50 nM AIP-I) is reported as 48.8% (65.2) and the “effect … of effluent” value (extracellular proteases [1]) is reported as “reduced overall protease activity to almost undetectable levels”.

CO[C@H]1/C=C/O[C@@]2(C)Oc3c(C)c(O)c4c(O)c(c(/C=N/N5CCN(C)CC5)c(O)c4c3C2=O)NC(=O)/C(C)=C\C=C\[C@H](C)[C@H](O)[C@@H](C)[C@@H](O)[C@@H](C)[C@H](OC(C)=O)[C@@H]1C [rifampicin] was tested, and the “decrease of viable cells” value ([2]; cells detached by AIP-I, 10 mg/ml rifampicin) was 6 log and the “level of rifampicin killing of the biofilm biomass” value ([2]; intact biofilm, 100 mg/ml rifampicin) was “about 2 log units”.

In the case of “AIP-I: autoinducing peptide YSTCDFIM (SEQ ID NO: 1), thiolactone bridge between C-terminal residue and internal cysteine (ester (positions not given here); not fully specified (bridges))”, the “concentration of bacteria in the effluent (CFU/ml)” value (S. aureus SH1000 biofilm; 24-36 hours after AIP-I addition (50 nM), versus buffer) is reported as “increased markedly”, the “biofilm detachment observed by CLSM” value (S. aureus SH1000 biofilm; agr deletion mutant (SH1001) biofilm, AIP-I treatment) is reported as “the mutant biofilm did not disperse” and the “biofilm detachment observed by CLSM” value (S. aureus SH1000 biofilm; [6]) is reported as “sloughed off the flow cell over a period of 1-2 days”. The “biomass dispersed / detached” value (S. aureus SH1000 biofilm; wild-type SH1000, 50 nM AIP-I added to 2-day biofilm, within 48 hrs (day 2 vs day 4), COMSTAT) was 91.3 (64.3) %, the biomass detached (S. aureus SH1000 biofilm; Δaur mutant biofilm, 50 nM AIP-I) was 54.6% (68.1) and the biomass detached (S. aureus SH1000 biofilm; Δaur Δspl double mutant biofilm, 50 nM AIP-I) was 21.7% (66.6). The “biofilm detachment observed by CLSM” value [3] was “robust detachment”, the “induction of agr P3-GFP reporter” value (agr P3 promoter; agr deletion mutant (SH1001) biofilm with dual reporters, AIP-I) was “lack of GFP induction” and the “induction of agr P3-GFP reporter” value (agr P3 promoter; [7]) was “strong induction of the GFP reporter”. The “protease activity in biofilm effluent” value (extracellular proteases [4]; agr mutant (SH1001) biofilm supplemented with AIP-I) was “very low levels of extracellular proteases” and the “protease activity in biofilm effluent relative to biofilm without AIP” value (extracellular proteases [4]) was “approximately five-fold”.

“AIP-II: autoinducing peptide GVNACSSLF (SEQ ID NO: 2), thiolactone bridge between C-terminal residue and internal cysteine (ester (positions not given here); not fully specified (bridges))” was tested, and the “biofilm detachment observed by CLSM” value (S. aureus SH1000 biofilm; [6]) was “the biofilm did not disperse”, the “biofilm detachment observed by CLSM” value [5] was “robust detachment” and the “induction of agr P3-GFP reporter” value (agr P3 promoter; [7]) was “failed to induce GFP expression”. The “protease activity in biofilm effluent relative to biofilm without AIP” value (extracellular proteases [4]) was “reduced the level of proteolytic activity”.
